Experimental data as given in the CheMixHub viscosity set.

Assay: xn = mol fraction of the nth substance listed

CC(O)C(=O)O (stereo unspecified) + O=C(O)[C@@H]1CCCN1
Conditions | viscosity [mPa·s]
323.15 K, 100 kPa, x1 = 0.5 | 997.4

COCCOCCOCCOCCOC + CO
viscosity [mPa·s], 100 kPa
Conditions | 293.15 K | 298.15 K | 303.15 K
x2 = 0.0463 | 3.726 | 3.3 | 2.916
x2 = 0.1031 | 3.616 | 3.209 | 2.845
x2 = 0.1978 | 3.408 | 3.036 | 2.691
x2 = 0.3111 | 3.132 | 2.803 | 2.493
x2 = 0.3886 | 2.919 | 2.611 | 2.334
x2 = 0.494 | 2.592 | 2.326 | 2.089
x2 = 0.5935 | 2.25 | 2.031 | 1.829
x2 = 0.6966 | 1.868 | 1.696 | 1.537
x2 = 0.7966 | 1.467 | 1.344 | 1.225
x2 = 0.8472 | 1.243 | 1.145 | 1.047
x2 = 0.8972 | 1.024 | 0.948 | 0.871
x2 = 0.9495 | 0.803 | 0.744 | 0.683

COC(C)(C)C + CCCCO
viscosity [mPa·s], 101 kPa
Conditions | x1 = 0.1006 | x1 = 0.102 | x1 = 0.2 | x1 = 0.2998 | x1 = 0.3995 | x1 = 0.5111 | x1 = 0.6008 | x1 = 0.6996 | x1 = 0.7994 | x1 = 0.9005
298.15 K | – | 1.94 | 1.48 | 1.14 | 0.902 | 0.719 | 0.613 | 0.529 | 0.46 | 0.401
303.15 K | 1.695 | – | – | – | – | – | – | – | – | –

Clc1ccccc1 + COC(=O)OC
Conditions | viscosity [mPa·s]
298.15 K, 101 kPa, x2 = 0.238 | 0.7093

Clc1ccccc1 + C1CCCCC1
Conditions | viscosity [mPa·s]
293.65 K, 101.33 kPa, x2 = 0.497 | 0.834
293.85 K, 101.33 kPa, x2 = 0.7 | 0.8665
294.25 K, 101.33 kPa, x2 = 0.3 | 0.8152
294.55 K, 101.33 kPa, x2 = 0.4 | 0.819
294.75 K, 101.33 kPa, x2 = 0.2 | 0.8056
294.85 K, 101.33 kPa, x2 = 0.8 | 0.889
295.15 K, 101.33 kPa, x2 = 0.6 | 0.8189
297.15 K, 101.33 kPa, x2 = 0.1 | 0.7894
303.05 K, 101.33 kPa, x2 = 0.3 | 0.738
303.25 K, 101.33 kPa, x2 = 0.7 | 0.7564
303.25 K, 101.33 kPa, x2 = 0.8 | 0.7829
303.45 K, 101.33 kPa, x2 = 0.1 | 0.731
303.75 K, 101.33 kPa, x2 = 0.2 | 0.7191
303.85 K, 101.33 kPa, x2 = 0.4 | 0.7276
303.85 K, 101.33 kPa, x2 = 0.6 | 0.7319
303.95 K, 101.33 kPa, x2 = 0.497 | 0.7249
308.15 K, 101 kPa, x2 = 0.0465 | 0.6656
308.15 K, 101 kPa, x2 = 0.1818 | 0.6489
308.15 K, 101 kPa, x2 = 0.2516 | 0.6418
308.15 K, 101 kPa, x2 = 0.3629 | 0.6379
308.15 K, 101 kPa, x2 = 0.4845 | 0.6421
308.15 K, 101 kPa, x2 = 0.5788 | 0.6489
308.15 K, 101 kPa, x2 = 0.6926 | 0.6668
308.15 K, 101 kPa, x2 = 0.807 | 0.6991
308.15 K, 101 kPa, x2 = 0.9588 | 0.7386
312.65 K, 101.33 kPa, x2 = 0.1 | 0.6777
312.75 K, 101.33 kPa, x2 = 0.497 | 0.6502
312.75 K, 101.33 kPa, x2 = 0.7 | 0.666
312.95 K, 101.33 kPa, x2 = 0.4 | 0.6505
312.95 K, 101.33 kPa, x2 = 0.6 | 0.5637
313.15 K, 101 kPa, x2 = 0.0465 | 0.6298
313.15 K, 101 kPa, x2 = 0.1818 | 0.6122
313.15 K, 101 kPa, x2 = 0.2516 | 0.6045
313.15 K, 101 kPa, x2 = 0.3629 | 0.5973
313.15 K, 101 kPa, x2 = 0.4845 | 0.601
313.15 K, 101 kPa, x2 = 0.5788 | 0.6074
313.15 K, 101 kPa, x2 = 0.6926 | 0.6254
313.15 K, 101 kPa, x2 = 0.807 | 0.6532
313.15 K, 101 kPa, x2 = 0.9588 | 0.689
313.25 K, 101.33 kPa, x2 = 0.2 | 0.6448
313.45 K, 101.33 kPa, x2 = 0.3 | 0.6518
313.75 K, 101.33 kPa, x2 = 0.8 | 0.6758
322.55 K, 101.33 kPa, x2 = 0.497 | 0.5847
322.55 K, 101.33 kPa, x2 = 0.6 | 0.585
322.75 K, 101.33 kPa, x2 = 0.3 | 0.591
322.75 K, 101.33 kPa, x2 = 0.4 | 0.5803
322.85 K, 101.33 kPa, x2 = 0.7 | 0.5926
322.85 K, 101.33 kPa, x2 = 0.8 | 0.6059
